Entries after “also recorded” stand apart in the source; their conditions may differ.
Key:
[1] = Hydrodynamic radius and size distribution of micelles by dynamic light scattering (DLS); type: physicochemical; conditions: detergent 1.0% by weight
Method: A method of measuring the radius of the micelles is not particularly limited, but the radius of the micelles may be measured using methods well known in the related art. For example, the radius of the micelles may be measured through a dynamic light scattering (DLS) experiment.
(§1) Specifically, the critical micelle concentration (CMC) was measured using diphenylhexatriene (DPH) as a fluorescent stain, and the hydrodynamic radii (Rh) of the micelles formed by each preparation (1.0% by weight) were measured through a dynamic light scattering (DLS) experiment.

[2] = Critical micelle concentration (CMC) using diphenylhexatriene (DPH) fluorescent stain; type: physicochemical; conditions: aqueous solution
Method: A method of measuring the CMC is not particularly limited, but the CMC may be measured using methods well known in the related art. For example, the CMC may be measured by a fluorescence staining method using diphenylhexatriene (DPH).
as §1

[3] = target: T1, human β2 adrenergic receptor (β2AR) (Homo sapiens, UniProt P07550); assay: Structural stability of β2AR, [3H]-dihydroalprenolol ([3H]-DHA) binding; type: biochemical; conditions: BTMs without CHS, DDM with CHS; for initial ligand-binding characteristics of β2AR ([3H]-DHA): CMC+0.2% by weight
T1 construct: made in house
T1 sequence (P07550 whole entry): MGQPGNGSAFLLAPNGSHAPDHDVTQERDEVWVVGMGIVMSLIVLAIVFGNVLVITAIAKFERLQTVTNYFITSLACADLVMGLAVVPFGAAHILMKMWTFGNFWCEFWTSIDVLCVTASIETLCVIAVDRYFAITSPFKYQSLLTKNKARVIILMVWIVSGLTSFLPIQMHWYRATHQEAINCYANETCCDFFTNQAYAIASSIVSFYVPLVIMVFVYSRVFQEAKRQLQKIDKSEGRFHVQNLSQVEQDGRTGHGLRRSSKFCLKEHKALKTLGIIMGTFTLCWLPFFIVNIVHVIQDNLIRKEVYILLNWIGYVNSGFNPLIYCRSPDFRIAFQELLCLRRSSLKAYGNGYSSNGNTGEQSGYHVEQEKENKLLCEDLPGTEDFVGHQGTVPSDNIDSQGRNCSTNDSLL
Method: An experiment for determining the structural stability of a human β2 adrenergic receptor (β2AR) and a G-protein-coupled receptor (GPCR) by BTMs was performed. That is, a receptor purified with DDM was diluted with a buffer solution containing only each of the BTMs without cholesteryl hemisuccinate (CHS) or a buffer solution containing DDM with CHS. The final compound concentration was CMC+0.2% by weight, and the ligand-binding characteristics of the receptor were determined through [^3H]-dihydroalprenolol ([^3H]-DHA) binding.
Specifically, a radioactive ligand binding test was performed using the following method. β2AR was purified with 0.1% DDM (D. M. Rosenbaum et al., Science, 2007, 318, 1266-1273.), and finally concentrated to approximately 10 mg/mL (approximately 200 μM). A master binding mixture containing 10 nM [^3H]-dihydroalprenolol (DHA) supplemented with 0.5 mg/mL BSA in each 0.2% amphiphilic compound (DDM or BTMs) was prepared using the β2AR purified with DDM. The ligand-binding characteristics of the receptor purified with the amphiphilic compound at 0.2 pmol was monitored at regular intervals while the receptor was incubated at room temperature for 3 days. The ligand-binding characteristics of the receptor were determined using a water-soluble radioactive ligand binding assay as will be described below. The receptor purified with DDM or each of the BTMs was incubated with 10 nM [^3H]-DHA at room temperature for 30 minutes. The mixture was loaded on a G-50 column, and flow-through fractions were collected using 1 mL of a binding buffer (20 mM HEPES (pH 7.5) supplemented with 0.5 mg/mL BSA and 20×CMC of each amphiphilic compound, 100 mM NaCl). Then, the G-50 column was filled with 15 mL of a scintillation fluid. Receptor-bound [^3H]-DHA was counted using a scintillation counter (Beckman). Non-specific binding of [^3H]-DHA was determined by adding 2 μM of alprenolol (Sigma) in the same binding reaction. The binding affinity of [^3H]-DHA was plotted on a column graph, and each experiment was performed in triplicate.

[4] = target: T2, melibiose permease (MelB) (Salmonella typhimurium, UniProt P30878); assay: MelB extraction and thermostability, SDS-PAGE and Western Blotting of the dissolved protein; conditions: 55° C., 90 minutes; detergent 1.5% by weight
T2 construct: made in house; host or cells: E. coli DW2
T2 sequence (P30878 whole entry): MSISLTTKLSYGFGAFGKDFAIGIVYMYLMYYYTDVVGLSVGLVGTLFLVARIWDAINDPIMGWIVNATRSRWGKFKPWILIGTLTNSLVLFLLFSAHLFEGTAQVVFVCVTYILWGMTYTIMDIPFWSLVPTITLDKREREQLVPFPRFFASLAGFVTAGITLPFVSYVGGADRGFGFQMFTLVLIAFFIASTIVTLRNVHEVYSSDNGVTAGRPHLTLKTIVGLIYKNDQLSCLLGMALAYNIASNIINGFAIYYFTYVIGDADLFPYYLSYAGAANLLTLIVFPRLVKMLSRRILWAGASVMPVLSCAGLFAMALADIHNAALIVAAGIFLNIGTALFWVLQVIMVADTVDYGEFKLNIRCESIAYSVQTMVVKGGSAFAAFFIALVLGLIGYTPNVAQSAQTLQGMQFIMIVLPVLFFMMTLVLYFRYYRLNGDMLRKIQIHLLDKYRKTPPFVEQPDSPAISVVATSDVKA
Method: The MelB protein was extracted from a membrane using BTM-C11s or DDM, and the amount and structure of the extracted protein were analyzed through SDS-PAGE and Western Blotting. A concentration of the amphiphilic compound used was 1.5% by weight, and the protein was extracted at four temperatures (0, 45, 55, and 65° C.), and incubated at the same temperature for 90 minutes. Thereafter, an amount of the protein remaining dissolved in an aqueous solution was measured to evaluate two types of performance: protein extraction efficiency and stabilization ability of the compound. The amount of the protein extracted and stabilized with each of the amphiphilic molecules is expressed as a relative value (%) of the entire amount of proteins contained in a membrane sample which is not treated with the amphiphilic molecules.
Specifically, Salmonella typhimurium melibiose permease (MelBSt) having a 10-His tag at the C-terminus thereof was expressed in E. coli DW2 cells (AmelB and AlacZY) using a plasmid pK95ΔAHB/WT MelBSt/CH10. Cell growth and membrane preparation were performed according to the method disclosed in the article by A. S. Ethayathulla et al. (Nat. Commun. 2014, 5, 3009). A protein assay was performed using a Micro BCA kit (Thermo Scientific, Rockford, Ill.). An effect of the isomers (A-BTM-C11, B-BTM-C11, and M-BTM-C11) of the BTM-C11s or DDM on the MelBSt stability was evaluated using the protocol disclosed in P. S. Chae et al. (Nat. Methods 2010, 7, 1003-1008). A membrane sample (having a final protein concentration of 10 mg/mL) containing MelBSt was incubated at four temperatures (0, 45, 55, and 65° C.) for 90 minutes in a solubilizing buffer (20 mM sodium phosphate, pH 7.5, 200 mM NaCl, 10% glycerol, and 20 mM melibiose) containing 1.5% (w/v) DDM or the BTM-C11 isomers. To remove insoluble matter, the sample was ultracentrifuged at 355,590 g at 4° C. for 45 minutes using a Beckman Optima™ MAX ultracentrifuge equipped with a TLA-100 rotor. The dissolved fraction was separated by 16% SDS-PAGE, and then immunoblotted with a Penta-His-HRP antibody (Qiagen, Germantown, Md.). The membrane fraction containing 20 μg of untreated proteins was used to represent the entire MelB, and the treated samples were loaded in each well at the same volume. MelBSt was measured by an ImageQuant LAS 4000 Biomolecular imager (GE Health Care Life Sciences) using a SuperSignal West Pico chemiluminescent substrate.

[5] = tested on: uric acid-xanthine/H+ symporter (UapA), UapAG411VΔ1-11 GFP fusion; assay: Thermal stability of UapA solubilized by detergent, fluorescence size exclusion chromatography (FSEC); parameters: species or system Aspergillus nidulans; conditions: detergent 1.0% by weight; 40° C. for 10 minutes
Method: A UapA protein is a uric acid-xanthine/H^+ symporter in Aspergillus nidulans. An experiment for measuring structural stability of a uric acid-xanthine/H^+ symporter (UapA) by BTMs in an aqueous solution was performed. The structural stability of UapA was measured using fluorescence size exclusion chromatography (FSEC).
Specifically, UapAG411VΔ1-11 (hereinafter referred to as ‘UapA’) was expressed as a GFP fusion protein in a Saccharomyces cerevisiae FGY217 strain, and divided into a sample buffer (20 mM Tris (pH 7.5), 150 mM NaCl, 0.03% DDM, and 0.6 mM xanthine). This procedure was performed according to the method disclosed in the article by J. Leung et al. (Mol. Membr. Biol. 2013, 30, 32-42). Membranes containing UapA were re-suspended in PBS (10 mM imidazole pH 8.0, 150 mM NaCl, and 10% glycerol), and a concentration of proteins was measured. […] 100 μL aliquots were removed from the respective tubes, and fluorescence reading on each sample was performed before and after the aliquots were ultracentrifuged at 150,000 g for 10 minutes to remove insoluble matter. Water-soluble fractions remaining under each condition were subjected to fluorescence SEC (FSEC) using a Superose 6 column (GE Healthcare) equilibrated with a buffer containing a proper preparation (DDM or BTM).

Compound	Rh (nm), hydrodynamic radius of micelles [1]	CMC [2]	CMC (% by weight) [2]	initial ligand-binding characteristics of β2AR ([3H]-DHA) [3]	remaining ligand-binding ability of β2AR, % of initial ([3]; after 3 days of incubation at room temperature)	effect on the long-term stability of the receptor (β2AR) ([3]; room temperature, 3 days)	amount of MelB protein remaining dissolved in aqueous solution [4]	UapA monodisperse peak in FSEC (extraction and structural stability) [5]
CCCCCCCCCOC[C@H](O[C@@H]1OC(CO)[C@@H](O[C@H]2OC(CO)[C@@H](O)C(O)C2O)C(O)C1O)[C@H](COCCCCCCCCC)O[C@@H]1OC(CO)[C@@H](O[C@H]2OC(CO)[C@@H](O)C(O)C2O)C(O)C1O (stereo partly drawn) [A-BTM-C9]	2.9 ± 0.04 nm	~0.021 mM	~0.0022 % by weight	–	–	–	–	–
CCCCCCCCCCOC[C@H](O[C@@H]1OC(CO)[C@@H](O[C@H]2OC(CO)[C@@H](O)C(O)C2O)C(O)C1O)[C@H](COCCCCCCCCCC)O[C@@H]1OC(CO)[C@@H](O[C@H]2OC(CO)[C@@H](O)C(O)C2O)C(O)C1O (stereo partly drawn) [A-BTM-C10]	3.2 ± 0.07 nm	~0.011 mM	~0.0012 % by weight	–	–	–	–	–
CCCCCCCCCCCOC[C@H](O[C@@H]1OC(CO)[C@@H](O[C@H]2OC(CO)[C@@H](O)C(O)C2O)C(O)C1O)[C@H](COCCCCCCCCCCC)O[C@@H]1OC(CO)[C@@H](O[C@H]2OC(CO)[C@@H](O)C(O)C2O)C(O)C1O (stereo partly drawn) [A-BTM-C11]	3.5 ± 0.03 nm	~0.007 mM	~0.0008 % by weight	slight decrease in the ligand-binding characteristics	–	–	–	–
CCCCCCCCCCCOC[C@H](O[C@@H]1OC(CO)[C@@H](O[C@H]2OC(CO)[C@@H](O)C(O)C2O)C(O)C1O)[C@@H](COCCCCCCCCCCC)O[C@@H]1OC(CO)[C@@H](O[C@H]2OC(CO)[C@@H](O)C(O)C2O)C(O)C1O (stereo partly drawn) [M-BTM-C11]	4.7 ± 0.27 nm	~0.006 mM	~0.0006 % by weight	slight decrease in the ligand-binding characteristics	approximately 70%	much more superior effect in maintaining the long-term stability of β2AR, compared to DDM	complete solubility	significant increase in the recovery of monodisperse peaks; also recorded: most excellent effect

Further lines, with some results ahead:

Rh (nm), hydrodynamic radius of micelles [1]	CMC [2]	CMC (% by weight) [2]	Compound	initial ligand-binding characteristics of β2AR ([3H]-DHA) [3]	remaining ligand-binding ability of β2AR, % of initial ([3]; after 3 days of incubation at room temperature)	effect on the long-term stability of the receptor (β2AR) ([3]; room temperature, 3 days)	amount of MelB protein remaining dissolved in aqueous solution [4]	UapA monodisperse peak in FSEC (extraction and structural stability) [5]
3.1 ± 0.07 nm	~0.013 mM	~0.0014 % by weight	CCCCCCCCCCOC[C@@H](O[C@@H]1OC(CO)[C@@H](O[C@H]2OC(CO)[C@@H](O)C(O)C2O)C(O)C1O)[C@@H](COCCCCCCCCCC)O[C@@H]1OC(CO)[C@@H](O[C@H]2OC(CO)[C@@H](O)C(O)C2O)C(O)C1O (stereo partly drawn) [B-BTM-C10]	–	–	–	–	–
3.5 ± 0.08 nm	~0.008 mM	~0.0009 % by weight	CCCCCCCCCCCOC[C@@H](O[C@@H]1OC(CO)[C@@H](O[C@H]2OC(CO)[C@@H](O)C(O)C2O)C(O)C1O)[C@@H](COCCCCCCCCCCC)O[C@@H]1OC(CO)[C@@H](O[C@H]2OC(CO)[C@@H](O)C(O)C2O)C(O)C1O (stereo partly drawn) [B-BTM-C11]	–	–	–	–	–
3.2 ± 0.05 nm	~0.017 mM	~0.0017 % by weight	CCCCCCCCCOC[C@H](O[C@@H]1OC(CO)[C@@H](O[C@H]2OC(CO)[C@@H](O)C(O)C2O)C(O)C1O)[C@@H](COCCCCCCCCC)O[C@@H]1OC(CO)[C@@H](O[C@H]2OC(CO)[C@@H](O)C(O)C2O)C(O)C1O (stereo partly drawn) [M-BTM-C9]	–	–	–	–	–
3.5 ± 0.07 nm	~0.008 mM	~0.0009 % by weight	CCCCCCCCCCOC[C@H](O[C@@H]1OC(CO)[C@@H](O[C@H]2OC(CO)[C@@H](O)C(O)C2O)C(O)C1O)[C@@H](COCCCCCCCCCC)O[C@@H]1OC(CO)[C@@H](O[C@H]2OC(CO)[C@@H](O)C(O)C2O)C(O)C1O (stereo partly drawn) [M-BTM-C10]	–	–	–	–	–

— patent US11198704B2, “Butane-tetraol-based amphiphiles and uses thereof” (Industry-University Cooperation Foundation Hanyang …, priority 2016, dated 2021)
